What was measured:
[1] = Thermodynamic stability of solid forms of Compound I; type: physicochemical; conditions: compared with other forms of Compound I; no method or data given
[2] = Bioavailability of the solid form of Compound I; conditions: no species, dose or data printed

thermodynamic stability of the solid form [1]: most thermodynamically stable form
bioavailability [2]: good bioavailability
Structure (SMILES): Cc1nn(C)cc1S(=O)(=O)NC(=O)c1ccc(-n2ccc(OCC(C)(C)C(F)(F)F)n2)nc1N1C[C@@H](C)CC1(C)C [Crystalline Compound I Form A, N-(1,3-dimethylpyrazol-4-yl)sulfonyl-6-[3-(3,3,3-trifluoro-2,2-dimethyl-propoxy)pyrazol-1-yl]-2-[(4S)-2,2,4-trimethylpyrrolidin-1-yl]pyridine-3-carboxamide]

— patent US20260034064A1, “COMPOSITIONS FOR THE TREATMENT OF CFTR-MEDIATED DISEASES” (Vertex Pharmaceuticals Incorporated, priority 2022, published 2026)
